Data: ChEMBL document CHEMBL3797068, “eCF309: a potent, selective and cell-permeable mTOR inhibitor” (Medchemcomm, 2016)
One block for each molecule: values may come before it. Calls of active or inactive are those of the source. The rule behind the calls is not given here.

Key:
[1] = molecular target: Tyrosine-protein kinase Blk (Homo sapiens, UniProt P51451); experiment: Inhibition of human BLK using (poly [Glu, Tyr] 4:1) as substrate assessed as incorporation of 33P in substrate by [gamma33P] ATP-based kinase assay
[2] = molecular target: Tyrosine-protein kinase ABL1 (Homo sapiens, UniProt P00519); experiment: Inhibition of human ABL using (poly [Glu, Tyr] 4:1) as substrate assessed as incorporation of 33P in substrate by [gamma33P] ATP-based kinase assay
[3] = molecular target: Platelet-derived growth factor receptor alpha (Homo sapiens, UniProt P16234); experiment: Inhibition of human PDGFRalpha using (poly [Glu, Tyr] 4:1) as substrate assessed as incorporation of 33P in substrate by [gamma33P] ATP-based kinase assay
[4] = molecular target: Tyrosine-protein kinase Fyn (Homo sapiens, UniProt P06241); experiment: Inhibition of human FYN using (poly [Glu, Tyr] 4:1) as substrate assessed as incorporation of 33P in substrate by [gamma33P] ATP-based kinase assay
[5] = molecular target: Mast/stem cell growth factor receptor Kit (Homo sapiens, UniProt P10721); experiment: Inhibition of human KIT using (poly [Glu, Tyr] 4:1) as substrate assessed as incorporation of 33P in substrate by [gamma33P] ATP-based kinase assay
[6] = molecular target: Serine/threonine-protein kinase mTOR (Homo sapiens, UniProt P42345); experiment: Inhibition of human mTOR using (poly [Glu, Tyr] 4:1) as substrate assessed as incorporation of 33P in substrate by [gamma33P] ATP-based kinase assay
[7] = molecular target: Proto-oncogene tyrosine-protein kinase receptor Ret (Homo sapiens, UniProt P07949); experiment: Inhibition of human RET using (poly [Glu, Tyr] 4:1) as substrate assessed as incorporation of 33P in substrate by [gamma33P] ATP-based kinase assay
[8] = molecular target: Proto-oncogene tyrosine-protein kinase Src (Homo sapiens, UniProt P12931); experiment: Inhibition of human SRC using (poly [Glu, Tyr] 4:1) as substrate assessed as incorporation of 33P in substrate by [gamma33P] ATP-based kinase assay
[9] = molecular target: Tyrosine-protein kinase Yes (Homo sapiens, UniProt P07947); experiment: Inhibition of human YES using (poly [Glu, Tyr] 4:1) as substrate assessed as incorporation of 33P in substrate by [gamma33P] ATP-based kinase assay
[10] = molecular target: Phosphatidylinositol 4,5-bisphosphate 3-kinase catalytic subunit alpha isoform (Homo sapiens, UniProt P42336); experiment: Inhibition of PI3Kalpha (unknown origin) using (poly [Glu, Tyr] 4:1) as substrate assessed as incorporation of 33P in substrate by [gamma33P] ATP-based kinase assay
[11] = molecular target: Phosphatidylinositol 4,5-bisphosphate 3-kinase catalytic subunit beta isoform (Homo sapiens, UniProt P42338); experiment: Inhibition of PI3Kbeta (unknown origin) using (poly [Glu, Tyr] 4:1) as substrate assessed as incorporation of 33P in substrate by [gamma33P] ATP-based kinase assay
[12] = molecular target: Phosphatidylinositol 4,5-bisphosphate 3-kinase catalytic subunit gamma isoform (Homo sapiens, UniProt P48736); experiment: Inhibition of PI3Kgamma (unknown origin) using (poly [Glu, Tyr] 4:1) as substrate assessed as incorporation of 33P in substrate by [gamma33P] ATP-based kinase assay
[13] = molecular target: T1, Phosphatidylinositol 4,5-bisphosphate 3-kinase catalytic subunit delta isoform (Homo sapiens, UniProt O00329); experiment: Inhibition of PI3Kdelta (unknown origin) using (poly [Glu, Tyr] 4:1) as substrate assessed as incorporation of 33P in substrate by [gamma33P] ATP-based kinase assay
T1 sequence (O00329 whole entry): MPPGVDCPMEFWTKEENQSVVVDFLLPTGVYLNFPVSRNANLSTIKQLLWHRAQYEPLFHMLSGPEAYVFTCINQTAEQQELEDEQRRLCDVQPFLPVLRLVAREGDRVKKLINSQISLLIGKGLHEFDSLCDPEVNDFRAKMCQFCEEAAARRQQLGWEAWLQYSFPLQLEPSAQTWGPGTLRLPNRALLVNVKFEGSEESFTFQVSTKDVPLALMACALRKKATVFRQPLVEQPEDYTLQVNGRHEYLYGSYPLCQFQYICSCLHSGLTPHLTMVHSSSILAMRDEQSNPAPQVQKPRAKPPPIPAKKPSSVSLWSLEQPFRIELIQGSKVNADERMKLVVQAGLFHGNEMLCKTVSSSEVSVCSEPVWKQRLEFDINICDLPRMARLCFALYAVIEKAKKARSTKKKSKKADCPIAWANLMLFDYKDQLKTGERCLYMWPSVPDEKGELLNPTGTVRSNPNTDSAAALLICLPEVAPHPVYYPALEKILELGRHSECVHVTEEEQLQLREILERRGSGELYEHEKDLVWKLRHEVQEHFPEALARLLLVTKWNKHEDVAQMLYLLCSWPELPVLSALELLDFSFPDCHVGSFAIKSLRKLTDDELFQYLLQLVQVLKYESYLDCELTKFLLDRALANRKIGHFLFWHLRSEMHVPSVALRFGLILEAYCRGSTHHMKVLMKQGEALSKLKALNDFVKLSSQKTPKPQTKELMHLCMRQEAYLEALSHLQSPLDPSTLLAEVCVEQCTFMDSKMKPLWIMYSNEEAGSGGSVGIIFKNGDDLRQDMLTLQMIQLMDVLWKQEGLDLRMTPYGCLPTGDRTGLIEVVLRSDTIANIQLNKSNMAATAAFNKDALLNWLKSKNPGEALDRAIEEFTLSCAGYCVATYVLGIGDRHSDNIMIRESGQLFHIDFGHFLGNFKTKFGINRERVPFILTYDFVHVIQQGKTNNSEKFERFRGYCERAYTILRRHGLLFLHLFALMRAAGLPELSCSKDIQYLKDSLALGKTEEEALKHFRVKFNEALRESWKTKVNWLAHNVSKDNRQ

MCF7 [14] = experiment: Cytotoxicity against human MCF7 cells after 5 days by Presto blue reagent-based fluorescence analysis; type: functional, cell-based; settings: for EC50: MCF7, 120 h
MCF7 [15] = experiment: Cytotoxicity against human MCF7 cells assessed as cell viability at 1000 nM after 5 days by Presto blue reagent-based spectrofluorometric analysis; type: functional; settings: MCF7, 120 h, read-out: Activity
MCF7 [16] = experiment: Cytotoxicity against human MCF7 cells at 0.3 to 1000 nM after 5 days by Presto blue reagent-based spectrofluorometric analysis; type: functional, cell-based

Chain of Platelet-derived growth factor receptor alpha (P16234 whole entry): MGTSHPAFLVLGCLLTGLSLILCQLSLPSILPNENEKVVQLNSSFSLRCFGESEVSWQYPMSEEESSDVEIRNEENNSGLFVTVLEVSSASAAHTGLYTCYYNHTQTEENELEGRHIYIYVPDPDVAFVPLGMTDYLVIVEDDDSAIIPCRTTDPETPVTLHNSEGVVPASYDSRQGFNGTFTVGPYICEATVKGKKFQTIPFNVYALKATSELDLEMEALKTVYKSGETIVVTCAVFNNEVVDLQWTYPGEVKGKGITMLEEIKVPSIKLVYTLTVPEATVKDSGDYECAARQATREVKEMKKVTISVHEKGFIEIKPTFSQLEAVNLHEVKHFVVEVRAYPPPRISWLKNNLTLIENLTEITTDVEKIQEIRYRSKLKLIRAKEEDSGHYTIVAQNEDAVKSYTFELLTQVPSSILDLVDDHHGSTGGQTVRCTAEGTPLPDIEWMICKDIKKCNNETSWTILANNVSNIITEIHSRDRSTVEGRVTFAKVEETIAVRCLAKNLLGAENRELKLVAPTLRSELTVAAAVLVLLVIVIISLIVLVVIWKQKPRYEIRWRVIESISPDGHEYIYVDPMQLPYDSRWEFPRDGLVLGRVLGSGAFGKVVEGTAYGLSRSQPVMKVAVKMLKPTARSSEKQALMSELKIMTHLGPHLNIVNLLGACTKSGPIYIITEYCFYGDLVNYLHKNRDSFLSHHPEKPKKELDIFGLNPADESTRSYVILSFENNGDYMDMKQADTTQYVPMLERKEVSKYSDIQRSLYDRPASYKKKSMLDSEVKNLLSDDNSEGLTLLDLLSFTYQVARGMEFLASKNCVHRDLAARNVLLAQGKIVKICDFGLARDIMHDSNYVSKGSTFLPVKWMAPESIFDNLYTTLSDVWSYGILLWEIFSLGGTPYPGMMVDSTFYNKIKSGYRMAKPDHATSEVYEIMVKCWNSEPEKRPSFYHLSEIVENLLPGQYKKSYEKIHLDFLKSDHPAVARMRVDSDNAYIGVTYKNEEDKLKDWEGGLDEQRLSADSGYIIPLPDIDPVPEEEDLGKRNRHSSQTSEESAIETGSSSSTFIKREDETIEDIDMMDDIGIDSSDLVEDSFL
Chain of Mast/stem cell growth factor receptor Kit (P10721 whole entry): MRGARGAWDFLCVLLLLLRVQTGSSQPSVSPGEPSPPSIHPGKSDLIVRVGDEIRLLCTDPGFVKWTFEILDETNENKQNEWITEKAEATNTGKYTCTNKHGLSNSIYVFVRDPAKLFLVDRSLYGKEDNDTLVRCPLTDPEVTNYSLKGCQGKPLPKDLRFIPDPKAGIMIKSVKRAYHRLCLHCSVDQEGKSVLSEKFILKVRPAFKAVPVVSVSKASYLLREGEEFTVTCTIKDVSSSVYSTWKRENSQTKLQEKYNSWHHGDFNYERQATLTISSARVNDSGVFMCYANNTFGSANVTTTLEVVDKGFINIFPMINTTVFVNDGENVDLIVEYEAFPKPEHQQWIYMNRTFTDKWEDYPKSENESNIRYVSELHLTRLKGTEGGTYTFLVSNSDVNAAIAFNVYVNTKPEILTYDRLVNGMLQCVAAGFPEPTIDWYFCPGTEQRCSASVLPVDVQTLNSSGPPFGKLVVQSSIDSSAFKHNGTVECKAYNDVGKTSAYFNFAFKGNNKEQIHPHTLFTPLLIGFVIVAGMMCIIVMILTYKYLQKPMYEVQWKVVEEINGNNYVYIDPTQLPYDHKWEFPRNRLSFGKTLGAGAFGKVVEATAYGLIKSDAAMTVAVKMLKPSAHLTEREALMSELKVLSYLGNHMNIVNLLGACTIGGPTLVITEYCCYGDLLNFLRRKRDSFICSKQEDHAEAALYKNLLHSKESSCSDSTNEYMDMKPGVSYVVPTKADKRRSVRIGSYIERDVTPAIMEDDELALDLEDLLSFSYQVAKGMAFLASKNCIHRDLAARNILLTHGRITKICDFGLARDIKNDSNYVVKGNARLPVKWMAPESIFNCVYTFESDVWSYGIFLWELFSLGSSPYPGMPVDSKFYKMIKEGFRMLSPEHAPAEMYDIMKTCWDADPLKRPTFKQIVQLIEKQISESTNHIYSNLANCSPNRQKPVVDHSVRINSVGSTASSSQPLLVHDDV
Chain of Tyrosine-protein kinase Blk (P51451 whole entry): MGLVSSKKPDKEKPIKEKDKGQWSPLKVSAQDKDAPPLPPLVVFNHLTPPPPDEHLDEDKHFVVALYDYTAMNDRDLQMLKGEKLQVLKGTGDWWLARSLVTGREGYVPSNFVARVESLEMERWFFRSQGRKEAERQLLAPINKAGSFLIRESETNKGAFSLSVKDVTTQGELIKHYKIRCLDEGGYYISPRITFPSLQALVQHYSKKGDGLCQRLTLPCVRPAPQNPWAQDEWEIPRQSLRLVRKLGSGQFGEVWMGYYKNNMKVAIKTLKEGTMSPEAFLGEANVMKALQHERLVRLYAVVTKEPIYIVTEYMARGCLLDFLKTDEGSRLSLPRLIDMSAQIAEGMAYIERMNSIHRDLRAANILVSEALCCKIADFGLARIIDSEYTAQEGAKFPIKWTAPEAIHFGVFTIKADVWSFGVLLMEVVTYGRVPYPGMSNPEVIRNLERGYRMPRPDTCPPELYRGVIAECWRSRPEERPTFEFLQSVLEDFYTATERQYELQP
Chain of Proto-oncogene tyrosine-protein kinase receptor Ret (P07949 whole entry): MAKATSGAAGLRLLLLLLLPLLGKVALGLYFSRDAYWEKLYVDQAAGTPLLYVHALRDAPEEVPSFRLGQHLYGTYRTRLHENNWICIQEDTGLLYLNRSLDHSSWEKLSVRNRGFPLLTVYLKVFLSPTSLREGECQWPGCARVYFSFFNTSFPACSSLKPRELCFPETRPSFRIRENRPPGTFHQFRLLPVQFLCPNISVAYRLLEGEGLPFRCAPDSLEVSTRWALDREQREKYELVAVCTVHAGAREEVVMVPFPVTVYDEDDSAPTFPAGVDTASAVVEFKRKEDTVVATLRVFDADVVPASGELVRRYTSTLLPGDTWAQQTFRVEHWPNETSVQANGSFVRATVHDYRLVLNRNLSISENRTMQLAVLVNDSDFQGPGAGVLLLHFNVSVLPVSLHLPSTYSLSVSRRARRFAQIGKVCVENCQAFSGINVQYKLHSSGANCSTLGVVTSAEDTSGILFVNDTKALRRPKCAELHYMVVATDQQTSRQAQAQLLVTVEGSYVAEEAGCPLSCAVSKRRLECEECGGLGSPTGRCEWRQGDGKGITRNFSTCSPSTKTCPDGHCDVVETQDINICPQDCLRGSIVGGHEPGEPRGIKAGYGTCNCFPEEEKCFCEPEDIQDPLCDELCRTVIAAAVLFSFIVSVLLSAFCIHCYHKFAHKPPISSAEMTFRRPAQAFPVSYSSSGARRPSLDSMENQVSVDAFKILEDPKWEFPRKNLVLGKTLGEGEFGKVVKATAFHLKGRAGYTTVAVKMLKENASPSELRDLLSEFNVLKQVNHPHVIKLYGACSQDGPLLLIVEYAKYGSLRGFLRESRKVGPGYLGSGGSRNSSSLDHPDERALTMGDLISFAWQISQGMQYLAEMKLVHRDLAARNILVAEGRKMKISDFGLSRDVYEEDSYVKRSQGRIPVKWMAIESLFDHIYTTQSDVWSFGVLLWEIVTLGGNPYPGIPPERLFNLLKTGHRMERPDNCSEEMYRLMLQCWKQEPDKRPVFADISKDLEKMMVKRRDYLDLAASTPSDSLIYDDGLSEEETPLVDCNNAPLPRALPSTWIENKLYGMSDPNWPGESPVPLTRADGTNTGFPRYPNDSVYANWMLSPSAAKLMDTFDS
Chain of Tyrosine-protein kinase ABL1 (P00519 whole entry): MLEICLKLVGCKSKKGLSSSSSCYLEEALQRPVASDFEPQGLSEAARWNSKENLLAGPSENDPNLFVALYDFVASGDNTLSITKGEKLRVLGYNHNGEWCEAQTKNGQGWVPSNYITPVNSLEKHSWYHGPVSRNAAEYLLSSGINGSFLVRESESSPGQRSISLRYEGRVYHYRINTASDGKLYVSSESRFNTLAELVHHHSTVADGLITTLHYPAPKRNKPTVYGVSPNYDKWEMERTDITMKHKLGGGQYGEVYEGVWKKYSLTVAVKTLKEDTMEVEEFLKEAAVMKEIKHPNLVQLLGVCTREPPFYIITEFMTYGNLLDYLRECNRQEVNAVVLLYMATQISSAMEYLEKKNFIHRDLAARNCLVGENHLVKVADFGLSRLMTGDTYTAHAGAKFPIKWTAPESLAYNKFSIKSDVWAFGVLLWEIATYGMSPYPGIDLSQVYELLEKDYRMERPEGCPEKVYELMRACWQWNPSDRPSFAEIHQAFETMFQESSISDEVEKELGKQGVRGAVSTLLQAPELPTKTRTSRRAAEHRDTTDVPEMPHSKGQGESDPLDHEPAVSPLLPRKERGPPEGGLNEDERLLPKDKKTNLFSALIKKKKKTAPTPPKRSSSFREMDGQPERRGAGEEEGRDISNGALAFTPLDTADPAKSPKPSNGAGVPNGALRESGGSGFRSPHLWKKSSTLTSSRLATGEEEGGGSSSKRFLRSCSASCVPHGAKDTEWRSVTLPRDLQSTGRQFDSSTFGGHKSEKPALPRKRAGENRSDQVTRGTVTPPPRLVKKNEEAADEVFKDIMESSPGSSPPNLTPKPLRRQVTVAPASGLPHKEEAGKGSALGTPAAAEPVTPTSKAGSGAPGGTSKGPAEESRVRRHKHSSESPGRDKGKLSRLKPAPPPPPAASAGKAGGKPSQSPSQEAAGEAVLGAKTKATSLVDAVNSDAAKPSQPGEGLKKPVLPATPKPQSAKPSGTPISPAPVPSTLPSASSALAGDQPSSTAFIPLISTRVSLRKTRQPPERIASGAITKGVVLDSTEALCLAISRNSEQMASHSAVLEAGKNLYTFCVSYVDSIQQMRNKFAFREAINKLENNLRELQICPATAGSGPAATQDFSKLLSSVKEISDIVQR

IC50 [1]: > 100 µM
IC50 [2]: 8.63 µM
IC50 [3]: > 100 µM
IC50 [4]: > 100 µM
IC50 [5]: > 100 µM
IC50 [6]: 0.059 µM
IC50 [7]: > 100 µM
IC50 [8]: > 100 µM
IC50 [9]: > 100 µM
IC50 [10]: 0.115 µM
IC50 [11]: 3.85 µM
IC50 [12]: 0.302 µM
IC50 [13]: 0.271 µM
SMILES: Nc1nc2cc(-c3nn(CC4OCCO4)c4ncnc(N)c34)ccc2o1
EC50 (MCF7 [14]): 0.0076 µM

IC50 [1]: > 100 µM
IC50 [3]: > 100 µM
IC50 [5]: > 100 µM
SMILES: CCOC(Cn1nc(-c2cnc3[nH]ccc3c2)c2c(N)ncnc21)OCC
Activity (MCF7 [14]): Active

SMILES: CO[C@H]1C[C@@H]2CC[C@@H](C)[C@@](O)(O2)C(=O)C(=O)N2CCCC[C@H]2C(=O)O[C@H]([C@H](C)C[C@@H]2CC[C@@H](OCCO)[C@H](OC)C2)CC(=O)[C@H](C)/C=C(\C)[C@@H](O)[C@@H](OC)C(=O)[C@H](C)C[C@H](C)/C=C/C=C/C=C/1C [EVEROLIMUS]
EC50 (MCF7 [14]): < 0.001 µM
viability at 1 µM (MCF7 [15]): 30%

SMILES: COC(Cn1nc(-c2cnc3[nH]ccc3c2)c2c(N)ncnc21)OC
Activity (MCF7 [14]): Active

SMILES: CNC(=O)c1cccc(-c2ccc3c(N4CCOC[C@@H]4C)nc(N4CCOC[C@@H]4C)nc3n2)c1
Activity (MCF7 [14]): Active

SMILES: Nc1nc2cc(-c3nn(CC=O)c4ncnc(N)c34)ccc2o1
Activity (MCF7 [16]): inactive
